{
  "source": "patent US20220218647A1",
  "about": "“DIETARY BUTYRATE” (SOCIETE DES PRODUITS NESTLE S.A., priority 2019, published 2022)",
  "key": {"[1]": {"biological_target": "T1, porcine pancreatic lipase (PPL) (Sus scrofa, UniProt P00591)", "T1 sequence (P00591 1-450)": "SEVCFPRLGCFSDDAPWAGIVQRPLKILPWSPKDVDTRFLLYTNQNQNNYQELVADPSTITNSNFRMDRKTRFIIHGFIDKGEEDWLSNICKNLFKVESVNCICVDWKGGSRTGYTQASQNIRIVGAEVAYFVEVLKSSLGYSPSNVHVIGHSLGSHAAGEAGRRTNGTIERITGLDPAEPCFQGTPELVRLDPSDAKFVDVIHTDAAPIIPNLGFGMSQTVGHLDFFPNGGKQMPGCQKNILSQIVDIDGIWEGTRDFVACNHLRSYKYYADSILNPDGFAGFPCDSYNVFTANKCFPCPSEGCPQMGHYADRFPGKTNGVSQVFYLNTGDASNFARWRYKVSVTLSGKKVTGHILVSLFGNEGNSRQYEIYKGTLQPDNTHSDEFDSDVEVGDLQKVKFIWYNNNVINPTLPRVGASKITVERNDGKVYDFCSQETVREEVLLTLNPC", "T1 sequence (P02703 23-112 partner)": "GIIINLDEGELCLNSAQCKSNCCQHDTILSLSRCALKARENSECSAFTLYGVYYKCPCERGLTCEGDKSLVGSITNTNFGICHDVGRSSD", "assay": "In vitro lipid digestion in simulated intestinal fluid (SIF), pH-stat", "format": "in vitro ADME", "design": "by porcine pancreatic lipase (from pancreatin); from tissue; host or cells: pancreatin (pig pancreas extract)", "details": "SIF alone; emulsion containing 200 mg fat, pH 6.8, 37° C.", "source_text": "(§1) An emulsion was then created using an ultrasonic probe homogeniser."}, "[2]": {"biological_target": "T1, porcine pancreatic lipase (PPL)", "details": "pig, 3 h, pH 11.5", "source_text": "Because many fatty acids are only partially ionised at pH 6.8, direct titration gives only partial picture of the extent of lipid digestion, instead back titration to pH 11.5 or GC-FAME analysis is required to estimate the full extent of digestion."}, "[3]": {"test_system": "rabbit gastric lipase (RGL) followed by porcine pancreatic lipase (PPL)", "assay": "Sequential in vitro digestion in simulated gastric fluid (SGF) followed by SIF, pH-stat", "format": "in vitro ADME", "source_text": "as §1"}},
  "data": [
    {"smiles": "CCCC(=O)OCC(COC(=O)CCC)OC(=O)CCC", "note": "[tributyrin]", "values": [
      {"measurement": "initial rate of lipolysis", "setting": "[1]", "result": "223 ± 59", "unit": "µmol/min"},
      {"measurement": "extent of digestion", "setting": "[2]", "result": "101.5±0.9", "unit": "%"},
      {"measurement": "initial lipolysis rate in SIF compartment", "setting": "[3]; SGF-SIF sequential digestion, 200 mg fat", "result": "44.1 ± 8.8", "unit": "µmol/min"},
      {"measurement": "hydrolysis in the stomach", "setting": "[3]; gastric compartment of the model", "result": "extensive hydrolysis"},
      {"measurement": "lipolysis by gastric lipase", "setting": "[3]; indicated by decreased total fatty acid release during SIF lipolysis after pre-exposure to RGL in SGF", "result": "~60", "unit": "%"}
    ]}
  ]
}
